In patent EP0348490B1, “TREATMENT OF TYPE 2 DIABETES MELLITUS” (AMYLIN PHARMACEUTICALS, INC., priority 1988, dated 1995):
Where no end group is shown, it is not given here.

Key:
soleus muscles strips = conditions: synthetic subpeptides; data not shown
[1] = test system: isolated islets of Langerhans; assay: Glucose-stimulated insulin production by isolated islets of Langerhans; type: cell-based, rats
Protocol: The following experiments illustrate the fact that subpeptides of amylin can act to reduce the amount of insulin produced by isolated islets of Langerhans in response to a standard glucose challenge. […] All experiments were performed by known methods used in experimental practice. See, e.g., Lacey PE, and Kostianovsky M, Method for the isolation of intact islets of Langerhans from the rat pancreas. Diabetes 1967; 16:35-39.
Briefly, rats were killed, and islets of Langerhans were isolated from their pancreases. Experiments were performed either with freshly isolated islets or after overnight incubation of islets (23 h) in standard culture medium and conditions at 37°C. […]
Production of insulin is expressed as µU/islet/h. […] The integrity of the islet response was assessed by comparing the responses after stimulation of different aliquots of islets by two and ten mmol/L glucose, respectively, and the strength of the inhibitory response was judged against that induced by 1 µg/ml (650 nmol/L) somatostatin. […]
The results are shown in TABLE 5 below and all results are expressed as ± standard error of the mean (s.e.m.). The significance of differences between the means of groups is assessed by the t-test. […] In all other experimental conditions, the significance of the inhibitory effect is measured against the effect of 10 mmol/L glucose alone.

Row | Substance | activity in inhibiting glycogen synthesis (reducing incorporation of radioactive glucose into glycogen) (soleus muscles strips) | inhibition of insulin secretion compared with that seen with amylin 27-37 ([1]; 10 mmol/L glucose, somatostatin 1 ug/mL (650 nmol/L), varying concentrations of CGRP 27-37) | trend of inhibition relative to that caused by amylin 27-37 ([1]; never reached significance)
1 | Amylin 8-37 (ATQRLANFLVHSSNNFGAILSSTNVGSNTY; Islet amyloid polypeptide; UniProt P10997 41-70, looked up, fragment) [[5]] | significant activity was present | – | –
2 | CGRP 27-37: subpeptide 27-37 of calcitonin gene related peptide, believed to affect the amylin receptor as an agonist (FVPTNVGSKAF; ends and bridges not checked; UniProt P06881 109-119, looked up, fragment) | – | no significant difference | slightly greater
